The text below walks through data of patent US20120225862A1, “HETEROARYL BENZAMIDES, COMPOSITIONS AND METHODS OF USE” (AUCKLAND UNIVSERVICES LIMITED, priority 2009, published 2012).

Assay [1] relates to RCC4 and RCC4/VHL cells. The assay is described as follows: Apoptosis (DAPI nuclear condensation, Annexin V / propidium iodide FACS). Type of assay: cell-based, human. The method, then: (A) Clonogenic survival of RCC4 and RCC4/VHL treated with […] (5 μM)(*p<0.05). All error bars represent the standard error of the mean. […] RCC4 and RCC4/VHL cells were treated with increasing concentrations of compound 47 (1.25, 2.5 and 5 μM), a negative control (DMSO) and a positive control (4-(pyridin-4-yl)-N-(m-tolyl)thiazol-2-amine). Cells were lysed and probed for LC3, a marker of autophagy, or α-tubulin (loading control). […] RCC4 and RCC4/VHL cells were treated with vehicle, increasing concentrations of compound 47, and camptothecin. Cells were stained with DAPI and nuclear condensation was examined by fluorescence microscopy. (D) RCC4 cells were treated with compound 47 (5 μM) for the indicated time and stained with Annexin V and propidium iodide and subjected to FACS analysis. […] RCC4 and RCC4/VHL cells were subjected to increasing concentrations of compound 47 (1.25, 2.5, and 5 μM), a negative control (DMSO), and a positive control (doxorubicin). Cells were lysed and subjected to Western blot with the indicated antibodies.
However, RCC cells without VHL undergo a necrotic cell death in response to compound 47 as measured by the ability of the cells to exclude trypan blue, an indicator of cell membrane integrity.

The subject of another assay is RCC4. The assay is described as follows: Lactate production (glycolysis), RCC4. Format: cell-based. As to conditions: Homo sapiens; RCC4, 5 μM, compared to control-treated cells; read-out: inhibition of lactate production in VHL-deficient cells. As for the experimental part:
(§1) All cells were grown in DMEM+10% FCS. ACHN and ACHN shVHL were a kind gift from George V. Thomas (UCLA). HIF overexpressing clones were described previously. Transfection of RNA oligos were performed with DnarmaFECT Reagent 1 (Dharmcon), according to manufacturer's directions. ON-TARGETplus SMART pools against HIF-1β/ARNT were purchased from Dharmacon. Glut1 was detected with anti-GLUT1 antibody from NeoMarkers/LabVision/Fisher. Pyruvate/lactate levels and hexokinase activity were both measured by fluorometric assay (BioVision and Sigma-Aldrich, respectively). ATP levels were measured by bioluminescence assay (ATP Determination Kit from Molecular Probes/Invitrogen). In vitro kinase activities were performed by Millipore KinaseProfiler. Affi-Gel 10 (BioRad) activated affinity media was coupled to analogs to generate immobilized affinity linkers.
As the central mediator of oxygen homeostasis, HIF plays an important role in the cellular adaptation to low oxygen conditions through the regulation of genes involved in metabolism and energy production. Inactivation of VHL results in an increase in the half-life of HIF protein. […] To examine whether this compound alters the rate of glycolysis in VHL-deficient cells, we measured the intracellular production of lactate, which is rapidly converted from pyruvate, the end-product of glycolysis. […]

In assay [2] the test system is RCC4 cells transfected with siRNA to HIF-1β. The assay is described as follows: 3H-2-deoxyglucose uptake, RCC4 with siRNA to HIF-1β. Format: cell-based, human. Conditions: 5 μM, FIG. 3E. The method, then:
as §1
One hundred thousand cells were plated per well in a six-well plate. The next day, cells were treated with the indicated concentration of drug and incubated for the indicated time. […] Glucose uptake was quantified with a scintillation counter.
To further investigate the relationship between HIF and compound 47 toxicity, we silenced HIF-1β in RCC4 cells and assessed its affect on glucose uptake. […]

Assay [3] concerns RCC4 and RCC4/VHL cells. Description: Oxygen consumption (Oxytherm electrode). Conditions: 5 μM, FIG. 3F. Type of assay: cell-based, human. As for the experimental part: Following treatment with vehicle or drug, cells were trypsinized, suspended at 5 million cells per ml in DMEM+10% FCS, and oxygen consumption was measured in 0.5 ml volume using an Oxytherm electrode unit (Hansatech).

For another assay, the target named is T1, c-RAF (Homo sapiens, UniProt P04049).
T1 construct: purchased Millipore (KinaseProfiler service)
T1 sequence (P04049 whole entry, species assumed): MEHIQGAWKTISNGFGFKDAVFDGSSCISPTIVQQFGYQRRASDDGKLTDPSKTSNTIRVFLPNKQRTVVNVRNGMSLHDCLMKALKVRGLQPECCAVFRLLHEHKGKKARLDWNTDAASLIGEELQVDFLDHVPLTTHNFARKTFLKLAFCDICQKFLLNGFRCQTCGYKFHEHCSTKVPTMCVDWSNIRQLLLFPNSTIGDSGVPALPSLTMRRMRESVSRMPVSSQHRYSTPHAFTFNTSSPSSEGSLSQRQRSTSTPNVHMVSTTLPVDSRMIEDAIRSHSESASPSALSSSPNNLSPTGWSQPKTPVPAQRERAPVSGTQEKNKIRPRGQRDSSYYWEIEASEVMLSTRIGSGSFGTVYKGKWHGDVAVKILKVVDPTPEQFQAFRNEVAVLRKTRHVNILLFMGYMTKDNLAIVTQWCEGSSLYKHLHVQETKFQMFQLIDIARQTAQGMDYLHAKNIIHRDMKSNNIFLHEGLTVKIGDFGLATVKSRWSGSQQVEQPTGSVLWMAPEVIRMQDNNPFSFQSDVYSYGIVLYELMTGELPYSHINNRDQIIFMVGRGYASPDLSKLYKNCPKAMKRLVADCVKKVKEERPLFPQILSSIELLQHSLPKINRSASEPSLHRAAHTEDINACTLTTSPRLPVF
The assay is described as follows: In vitro kinase activity (Millipore KinaseProfiler): c-RAF. Type of assay: biochemical. Conditions: no head or unit printed. The method, then: as §1
(§2) We next wanted to investigate the differential glucose uptake between RCCs with and without VHL treated with compound 47 that subsequently lead to the selective death of VHL-deficient cells. We first examined the message levels of the two main glucose transporters, GLUT1 and GLUT2 by quantitative real-time PCR. GLUT1 is an inducible, high-affinity glucose transporter, while GLUT2 is the glucose transporter responsible for basal glucose uptake. […] Cells deficient in VHL had very low levels of GLUT2 that could barely be detected (FIG. 3J). […]

For a further assay, the target named is T2, Fyn (Homo sapiens, UniProt P06241).
T2 construct: purchased Millipore (KinaseProfiler service)
T2 sequence (P06241 whole entry, species assumed): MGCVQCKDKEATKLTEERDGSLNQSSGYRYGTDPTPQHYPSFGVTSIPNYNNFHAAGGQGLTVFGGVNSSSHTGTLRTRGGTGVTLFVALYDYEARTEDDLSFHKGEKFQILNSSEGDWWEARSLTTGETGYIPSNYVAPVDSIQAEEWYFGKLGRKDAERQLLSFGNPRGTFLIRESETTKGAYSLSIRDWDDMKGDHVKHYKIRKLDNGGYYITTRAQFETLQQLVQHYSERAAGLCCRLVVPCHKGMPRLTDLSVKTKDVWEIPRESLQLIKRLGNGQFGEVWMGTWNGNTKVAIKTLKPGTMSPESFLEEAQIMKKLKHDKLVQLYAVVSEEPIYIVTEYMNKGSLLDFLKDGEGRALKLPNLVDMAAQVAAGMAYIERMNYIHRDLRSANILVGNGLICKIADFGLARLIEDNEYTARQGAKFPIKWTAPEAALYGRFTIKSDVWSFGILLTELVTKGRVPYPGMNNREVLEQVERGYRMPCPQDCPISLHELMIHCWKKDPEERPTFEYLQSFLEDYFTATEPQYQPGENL
Description: In vitro kinase activity (Millipore KinaseProfiler): Fyn. Type of assay: biochemical. Conditions: no head or unit printed. The method, then: as §1, §2

The target of a further assay is T3, MKK4 (Mus musculus, UniProt P47809).
T3 construct: purchased Millipore (KinaseProfiler service)
T3 sequence (P47809 2-397 limits assumed): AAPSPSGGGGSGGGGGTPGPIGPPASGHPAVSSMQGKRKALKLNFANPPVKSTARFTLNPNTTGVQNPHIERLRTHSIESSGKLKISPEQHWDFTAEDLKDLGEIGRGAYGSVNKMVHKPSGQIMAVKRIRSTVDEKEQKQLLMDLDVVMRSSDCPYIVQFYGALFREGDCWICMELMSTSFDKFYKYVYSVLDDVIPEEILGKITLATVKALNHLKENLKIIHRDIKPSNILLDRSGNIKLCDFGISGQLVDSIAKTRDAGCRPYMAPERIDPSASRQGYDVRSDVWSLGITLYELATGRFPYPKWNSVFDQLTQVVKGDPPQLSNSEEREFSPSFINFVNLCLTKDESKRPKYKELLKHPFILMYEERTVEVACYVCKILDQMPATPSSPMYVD
Description: In vitro kinase activity (Millipore KinaseProfiler): MKK4. Format: biochemical. Conditions: no head or unit printed. As for the experimental part: as §1, §2

For orientation: inhibition means the change of the read-out against control, counted positive when it falls. For the molecule `CC(C)(C)c1ccc(S(=O)(=O)NCc2ccc(C(=O)Nc3cccnc3)cc2)cc1` [Example 38, 4-((4-tert-Butylphenylsulfonamido)methyl)-N-(pyridin-3-yl)benzamide], in the assay with RCC4 and RCC4/VHL cells [1] (DAPI, RCC4 and RCC4/VHL, FIG. 7C), the “nuclear condensation (apoptosis)” value was “no nuclear condensation”. In addition, the “propidium iodide or annexin V staining (apoptosis)” value in the assay on RCC4 and RCC4/VHL cells [1] (RCC4, 5 μM, FACS, FIG. 7D) is “nor an increase in either propidium iodide or annexin V staining”. For the same molecule, in the assay on RCC4, the inhibition at 5 µM was around 60%. For the same molecule, in assay [2], the “glucose uptake in RCC4 with HIF-1β silenced” value was “insensitive”. For the same molecule, the “oxygen consumption, treated vs untreated cells” value with RCC4 and RCC4/VHL cells [3] is reported as “no difference in oxygen consumption”. The same molecule returned a c-RAF kinase activity on c-RAF of 103. The Fyn kinase activity at Fyn was found to be 91%. At MKK4, this molecule had an MKK4 kinase activity of 128.
